Measurements from US20260184713A1, “KINASE INHIBITORS” (The United States of America, as represented by the …, priority 2022, published 2026).
Values belong to the compound of their own block, whether it stands above or below them.

What was measured:
AKT1 = AKT1 (Homo sapiens, UniProt P31749); assay: HOTSPOT radiometric kinase assay
DYRK2 = target: T1, DYRK2 (Homo sapiens, UniProt Q92630); assay: HOTSPOT radiometric kinase assay; format: biochemical; conditions: 50 nM, 10 μM ATP
T1 construct: purchased Reaction Biology Corp
T1 sequence (Q92630 1-601): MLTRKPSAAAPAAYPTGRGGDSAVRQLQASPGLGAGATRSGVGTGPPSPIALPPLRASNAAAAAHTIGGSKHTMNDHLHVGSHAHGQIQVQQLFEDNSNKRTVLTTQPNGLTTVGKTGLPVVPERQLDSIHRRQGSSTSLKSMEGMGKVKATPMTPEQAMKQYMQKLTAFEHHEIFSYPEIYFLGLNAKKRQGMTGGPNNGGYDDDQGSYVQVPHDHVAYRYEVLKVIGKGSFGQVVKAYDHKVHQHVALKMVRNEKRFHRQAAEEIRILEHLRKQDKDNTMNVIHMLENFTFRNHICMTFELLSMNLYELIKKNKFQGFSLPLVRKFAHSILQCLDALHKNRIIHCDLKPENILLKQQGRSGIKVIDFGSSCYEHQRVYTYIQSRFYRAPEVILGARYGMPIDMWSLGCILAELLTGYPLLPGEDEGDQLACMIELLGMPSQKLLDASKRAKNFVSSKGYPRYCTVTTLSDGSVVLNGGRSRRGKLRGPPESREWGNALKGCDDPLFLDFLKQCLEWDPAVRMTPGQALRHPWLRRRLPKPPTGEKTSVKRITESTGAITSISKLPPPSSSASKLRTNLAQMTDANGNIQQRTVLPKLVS

MAP2K1 (MEK1) = MAP2K1 (MEK1) (Homo sapiens, UniProt Q02750); assay: HOTSPOT radiometric kinase assay
FLT1/VEGFR1 = FLT1/VEGFR1 (Homo sapiens, UniProt P17948); assay: HOTSPOT radiometric kinase assay
PKCα = PKCα (Homo sapiens, UniProt P17252); assay: HOTSPOT radiometric kinase assay
wide-type PKA (wt-PKA) = wide-type PKA (wt-PKA) (Homo sapiens, UniProt P17612); assay: modified sandwich ELISA, wild-type PKA; format: biochemical; conditions: read-out: IC50 against wt-PKA
DYRK1A = target: T2, DYRK1A (Homo sapiens, UniProt Q13627); assay: HOTSPOT radiometric kinase assay; format: biochemical; conditions: 50 nM, 10 μM ATP
T2 construct: purchased Reaction Biology Corp

STK39/STLK3 = target: T3, STK39/STLK3 (Homo sapiens, UniProt Q9UEW8); assay: HOTSPOT radiometric kinase assay; format: biochemical; conditions: 50 nM, 10 μM ATP
T3 construct: purchased Reaction Biology Corp

ERBB2/HER2 = ERBB2/HER2 (Homo sapiens, UniProt P04626); assay: HOTSPOT radiometric kinase assay
PKCθ = target: T4, PKCθ (Homo sapiens, UniProt Q04759); assay: HOTSPOT radiometric kinase assay; format: biochemical; conditions: 50 nM, 10 μM ATP
T4 construct: purchased Reaction Biology Corp

GSK3β = GSK3β (Homo sapiens, UniProt P49841); assay: HOTSPOT radiometric kinase assay
LATS1 = target: T5, LATS1 (Homo sapiens, UniProt O95835); assay: HOTSPOT radiometric kinase assay; format: biochemical; conditions: 50 nM, 10 μM ATP
T5 construct: purchased Reaction Biology Corp
T5 sequence (O95835 1-1130): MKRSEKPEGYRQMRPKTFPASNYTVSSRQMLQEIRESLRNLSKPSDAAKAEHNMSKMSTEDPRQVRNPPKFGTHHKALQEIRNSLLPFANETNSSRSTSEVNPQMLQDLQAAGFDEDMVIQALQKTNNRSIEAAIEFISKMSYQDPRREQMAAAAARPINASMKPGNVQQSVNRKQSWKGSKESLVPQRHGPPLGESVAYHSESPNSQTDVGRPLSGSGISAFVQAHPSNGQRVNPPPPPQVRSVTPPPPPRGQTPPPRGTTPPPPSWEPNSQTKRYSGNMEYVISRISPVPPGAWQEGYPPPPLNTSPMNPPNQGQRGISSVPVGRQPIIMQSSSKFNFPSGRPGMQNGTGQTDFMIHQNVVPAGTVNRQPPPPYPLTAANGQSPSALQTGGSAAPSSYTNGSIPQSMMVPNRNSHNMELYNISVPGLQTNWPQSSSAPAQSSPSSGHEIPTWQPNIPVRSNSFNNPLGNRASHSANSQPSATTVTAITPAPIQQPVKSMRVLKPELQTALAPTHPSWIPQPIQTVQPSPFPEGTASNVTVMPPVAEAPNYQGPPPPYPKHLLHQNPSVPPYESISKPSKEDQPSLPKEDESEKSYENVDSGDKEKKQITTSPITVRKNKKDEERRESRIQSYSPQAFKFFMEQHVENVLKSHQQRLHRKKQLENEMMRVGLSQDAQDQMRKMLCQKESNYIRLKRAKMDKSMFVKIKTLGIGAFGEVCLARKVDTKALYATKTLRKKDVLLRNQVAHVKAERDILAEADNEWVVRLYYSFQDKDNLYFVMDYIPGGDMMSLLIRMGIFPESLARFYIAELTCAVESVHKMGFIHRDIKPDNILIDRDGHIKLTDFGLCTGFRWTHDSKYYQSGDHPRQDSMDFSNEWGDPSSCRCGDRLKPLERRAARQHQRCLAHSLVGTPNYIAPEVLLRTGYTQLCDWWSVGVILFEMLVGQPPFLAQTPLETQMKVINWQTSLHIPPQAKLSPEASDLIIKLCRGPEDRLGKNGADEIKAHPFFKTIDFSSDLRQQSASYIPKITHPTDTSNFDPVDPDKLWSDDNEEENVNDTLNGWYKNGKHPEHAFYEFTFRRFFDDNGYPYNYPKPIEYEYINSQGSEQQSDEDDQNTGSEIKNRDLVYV

ERK1 = ERK1 (Homo sapiens, UniProt P27361); assay: HOTSPOT radiometric kinase assay
CLK1 = target: T6, CLK1 (Homo sapiens, UniProt P49759); assay: HOTSPOT radiometric kinase assay; format: biochemical; conditions: 50 nM, 10 μM ATP
T6 construct: purchased Reaction Biology Corp

PKG1α = PKG1α (Homo sapiens, UniProt Q13976); assay: HOTSPOT radiometric kinase assay; format: biochemical; conditions: 50 nM, 10 μM ATP
CK1α1 = CK1α1 (Homo sapiens, UniProt P48729); assay: HOTSPOT radiometric kinase assay
PKG1β = target: T7, PKG1β (Homo sapiens, UniProt Q13976); assay: HOTSPOT radiometric kinase assay; format: biochemical; conditions: 50 nM, 10 μM ATP
T7 construct: purchased Reaction Biology Corp

CAMK1δ = CAMK1δ (Homo sapiens, UniProt Q8IU85); assay: HOTSPOT radiometric kinase assay
PKAα = PKAα (Homo sapiens, UniProt P17612); assay: HOTSPOT radiometric kinase assay
Procedure: The differential was calculated as follows: IC50 (kinase)/IC50 (PKG1a).

[1] = tested on: panel of 370 human protein kinases; assay: pan human kinome profiling (370 kinases); conditions: 50 nM; panel of 370 kinases
PKADJ = target: T8, PKADJ (Homo sapiens, UniProt P17612); assay: modified sandwich ELISA, PKADJ holoenzyme; format: biochemical
T8 construct: gene fusion between the first exon of the gene encoding the Heat Shock Protein 40 (HSP40) family member DNAJB1 and the second exon; the other entry of the earlier key: DNAJB1 (P25685, DnaJ homolog subfamily B member 1)
Procedure: The reaction and readout components of this assay were than optimized including optimal reactant concentrations for the kinase reaction suitable to identify both inhibitors and activators of PKAJ.
The PKADJ holoenzyme was treated with the test compounds in the reaction step where the holoenzyme was dissociated to release the activated catalytic unit (PKADJc).

[2] = target: RIα2:JPKAcα2 chimeric kinase holoenzyme (Homo sapiens, UniProt P17612); assay: JPKAcα chimeric kinase holoenzyme ELISA dose response
Procedure: Compounds were tested to determine an IC50 value for inhibitory activity against RIα2:JPKAcα2 chimeric kinase holoenzyme. A 3× dose-response curve was set up over a final compound concentration range of 0-10 μM containing 1 μM cAMP, 50 μM ATP, and 0.4% DMSO in 100 mM Tris-HCl pH 7.5 (all final concentrations). A no cAMP/ATP control was also included for background normalization.
The % normalized activity measures were then fit to the following equation using a nonlinear regression least-squares fit with a variable slope (GraphPad Prism Software, San Diego, CA) an IC50 value was calculated using the following formula.

DYRK4 = target: T9, DYRK4 (Homo sapiens, UniProt Q9NR20); assay: HOTSPOT radiometric kinase assay; format: biochemical; conditions: 10 μM ATP
T9 construct: purchased Reaction Biology Corp
T9 sequence (Q9NR20 whole entry): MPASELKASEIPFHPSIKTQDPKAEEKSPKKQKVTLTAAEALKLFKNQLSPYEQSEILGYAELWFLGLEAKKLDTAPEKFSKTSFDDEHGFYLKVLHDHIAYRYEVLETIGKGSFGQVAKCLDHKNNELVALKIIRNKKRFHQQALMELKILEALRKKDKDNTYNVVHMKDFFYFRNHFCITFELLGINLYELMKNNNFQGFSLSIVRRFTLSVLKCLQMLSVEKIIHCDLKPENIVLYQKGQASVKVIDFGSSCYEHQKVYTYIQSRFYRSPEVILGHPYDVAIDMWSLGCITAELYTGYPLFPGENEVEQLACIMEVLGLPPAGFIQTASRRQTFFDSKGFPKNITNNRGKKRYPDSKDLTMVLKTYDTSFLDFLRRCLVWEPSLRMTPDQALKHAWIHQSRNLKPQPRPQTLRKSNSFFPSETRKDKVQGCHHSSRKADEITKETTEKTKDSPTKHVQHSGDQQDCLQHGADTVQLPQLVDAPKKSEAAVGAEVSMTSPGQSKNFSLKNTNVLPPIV

Sequence of AKT1 (P31749 whole entry): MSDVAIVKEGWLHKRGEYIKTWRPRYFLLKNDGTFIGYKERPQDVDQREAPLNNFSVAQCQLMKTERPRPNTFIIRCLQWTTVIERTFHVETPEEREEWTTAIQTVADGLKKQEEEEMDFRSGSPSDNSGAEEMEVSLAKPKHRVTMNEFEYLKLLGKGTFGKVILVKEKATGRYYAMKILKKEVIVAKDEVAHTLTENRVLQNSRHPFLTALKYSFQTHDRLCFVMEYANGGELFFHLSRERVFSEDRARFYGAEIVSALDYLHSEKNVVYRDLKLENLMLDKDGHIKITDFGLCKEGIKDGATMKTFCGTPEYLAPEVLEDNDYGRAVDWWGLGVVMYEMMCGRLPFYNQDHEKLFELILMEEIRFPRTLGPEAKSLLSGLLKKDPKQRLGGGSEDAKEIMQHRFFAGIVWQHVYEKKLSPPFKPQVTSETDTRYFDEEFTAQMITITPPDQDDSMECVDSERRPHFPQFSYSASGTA
T7 sequence (Q13976 1-686 isoform Q13976-2): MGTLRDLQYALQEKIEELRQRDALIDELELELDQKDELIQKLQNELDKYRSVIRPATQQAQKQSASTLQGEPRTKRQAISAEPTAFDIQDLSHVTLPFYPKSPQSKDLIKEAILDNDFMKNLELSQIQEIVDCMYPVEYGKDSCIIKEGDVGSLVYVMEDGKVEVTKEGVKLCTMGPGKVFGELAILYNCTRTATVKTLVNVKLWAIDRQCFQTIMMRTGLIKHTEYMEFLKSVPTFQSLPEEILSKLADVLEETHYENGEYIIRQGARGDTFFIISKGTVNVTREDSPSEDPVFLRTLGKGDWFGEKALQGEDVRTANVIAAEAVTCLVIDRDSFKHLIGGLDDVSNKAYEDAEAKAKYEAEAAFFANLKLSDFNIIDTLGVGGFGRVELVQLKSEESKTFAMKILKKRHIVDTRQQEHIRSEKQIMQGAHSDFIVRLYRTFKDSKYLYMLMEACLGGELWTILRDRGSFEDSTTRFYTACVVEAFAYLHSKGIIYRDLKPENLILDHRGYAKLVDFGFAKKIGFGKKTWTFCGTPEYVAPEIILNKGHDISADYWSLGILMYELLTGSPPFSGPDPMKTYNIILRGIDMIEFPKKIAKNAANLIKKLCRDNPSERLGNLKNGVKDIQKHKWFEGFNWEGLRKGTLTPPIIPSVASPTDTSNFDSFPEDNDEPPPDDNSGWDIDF
Sequence of CK1α1 (P48729 whole entry): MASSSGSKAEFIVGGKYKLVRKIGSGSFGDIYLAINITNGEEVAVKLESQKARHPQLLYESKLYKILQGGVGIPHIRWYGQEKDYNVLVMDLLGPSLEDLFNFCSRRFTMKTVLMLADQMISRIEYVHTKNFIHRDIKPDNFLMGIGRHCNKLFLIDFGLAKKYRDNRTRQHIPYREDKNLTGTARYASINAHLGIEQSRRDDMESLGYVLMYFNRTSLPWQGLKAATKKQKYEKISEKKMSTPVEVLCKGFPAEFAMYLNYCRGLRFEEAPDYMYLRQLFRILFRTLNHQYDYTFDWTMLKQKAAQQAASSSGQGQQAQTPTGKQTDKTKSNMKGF
T6 sequence (P49759 whole entry): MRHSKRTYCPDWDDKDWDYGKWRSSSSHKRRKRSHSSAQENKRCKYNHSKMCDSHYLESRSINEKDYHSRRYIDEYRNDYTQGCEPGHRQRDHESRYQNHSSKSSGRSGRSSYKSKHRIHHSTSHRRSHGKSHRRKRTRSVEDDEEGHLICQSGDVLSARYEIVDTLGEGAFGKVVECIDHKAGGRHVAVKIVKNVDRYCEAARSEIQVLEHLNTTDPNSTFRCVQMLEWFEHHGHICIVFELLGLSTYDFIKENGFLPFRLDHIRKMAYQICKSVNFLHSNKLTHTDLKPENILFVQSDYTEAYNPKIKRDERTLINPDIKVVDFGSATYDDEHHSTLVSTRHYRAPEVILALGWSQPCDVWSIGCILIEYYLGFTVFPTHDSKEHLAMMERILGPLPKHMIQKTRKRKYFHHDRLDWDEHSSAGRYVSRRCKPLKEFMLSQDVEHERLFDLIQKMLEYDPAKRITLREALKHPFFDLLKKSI
T4 sequence (Q04759 whole entry): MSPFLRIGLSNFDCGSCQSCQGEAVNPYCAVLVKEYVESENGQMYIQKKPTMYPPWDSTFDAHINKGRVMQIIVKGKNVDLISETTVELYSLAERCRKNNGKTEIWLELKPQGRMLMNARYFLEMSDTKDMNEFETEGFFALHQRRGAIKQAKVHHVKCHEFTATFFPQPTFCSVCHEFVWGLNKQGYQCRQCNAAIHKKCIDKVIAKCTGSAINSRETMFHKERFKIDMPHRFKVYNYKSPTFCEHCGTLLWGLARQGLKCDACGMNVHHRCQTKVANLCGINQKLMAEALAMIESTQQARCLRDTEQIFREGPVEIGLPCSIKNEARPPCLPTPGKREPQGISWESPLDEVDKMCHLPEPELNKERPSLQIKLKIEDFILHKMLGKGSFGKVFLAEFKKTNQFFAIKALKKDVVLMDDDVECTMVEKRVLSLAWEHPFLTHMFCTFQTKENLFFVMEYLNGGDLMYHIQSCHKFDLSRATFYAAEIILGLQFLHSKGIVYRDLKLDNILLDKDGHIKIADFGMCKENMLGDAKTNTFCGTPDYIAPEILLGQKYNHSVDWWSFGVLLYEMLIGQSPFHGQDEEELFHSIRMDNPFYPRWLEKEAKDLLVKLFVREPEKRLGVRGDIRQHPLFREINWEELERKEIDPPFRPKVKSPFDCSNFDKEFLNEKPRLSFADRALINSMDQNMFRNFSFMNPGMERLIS
Sequence of FLT1/VEGFR1 (P17948 27-1338): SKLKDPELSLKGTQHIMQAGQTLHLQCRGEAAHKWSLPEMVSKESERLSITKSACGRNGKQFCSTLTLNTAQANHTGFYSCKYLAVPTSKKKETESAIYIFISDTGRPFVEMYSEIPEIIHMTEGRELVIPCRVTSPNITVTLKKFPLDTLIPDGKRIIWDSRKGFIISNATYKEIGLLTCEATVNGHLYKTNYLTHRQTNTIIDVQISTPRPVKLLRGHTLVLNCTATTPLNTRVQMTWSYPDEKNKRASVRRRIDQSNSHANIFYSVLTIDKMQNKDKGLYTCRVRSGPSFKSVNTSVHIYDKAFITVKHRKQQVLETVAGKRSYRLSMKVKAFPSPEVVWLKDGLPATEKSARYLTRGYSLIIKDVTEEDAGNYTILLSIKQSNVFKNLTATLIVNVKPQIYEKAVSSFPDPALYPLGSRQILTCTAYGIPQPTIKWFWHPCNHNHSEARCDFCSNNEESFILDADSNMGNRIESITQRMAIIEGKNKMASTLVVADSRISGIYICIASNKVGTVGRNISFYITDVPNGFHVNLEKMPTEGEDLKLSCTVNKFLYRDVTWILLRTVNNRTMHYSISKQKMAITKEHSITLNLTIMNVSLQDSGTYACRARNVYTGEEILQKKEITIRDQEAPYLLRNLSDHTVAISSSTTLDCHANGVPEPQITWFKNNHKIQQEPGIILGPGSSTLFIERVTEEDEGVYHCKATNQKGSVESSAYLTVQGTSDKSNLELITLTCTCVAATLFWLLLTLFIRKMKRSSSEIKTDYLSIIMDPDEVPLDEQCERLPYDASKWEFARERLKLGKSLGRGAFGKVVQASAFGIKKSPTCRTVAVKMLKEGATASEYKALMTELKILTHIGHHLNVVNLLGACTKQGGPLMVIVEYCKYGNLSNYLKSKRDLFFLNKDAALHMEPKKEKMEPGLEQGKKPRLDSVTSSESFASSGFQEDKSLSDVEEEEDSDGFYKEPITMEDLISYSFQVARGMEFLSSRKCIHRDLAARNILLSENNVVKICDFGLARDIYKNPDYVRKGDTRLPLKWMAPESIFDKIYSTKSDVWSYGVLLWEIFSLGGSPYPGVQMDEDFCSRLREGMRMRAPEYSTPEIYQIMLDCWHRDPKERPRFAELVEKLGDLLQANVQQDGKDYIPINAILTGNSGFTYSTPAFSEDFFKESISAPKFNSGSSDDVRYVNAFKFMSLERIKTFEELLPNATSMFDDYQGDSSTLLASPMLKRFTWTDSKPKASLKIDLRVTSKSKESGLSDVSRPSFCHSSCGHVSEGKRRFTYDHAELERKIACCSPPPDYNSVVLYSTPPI
Sequence of ERK1 (P27361 whole entry): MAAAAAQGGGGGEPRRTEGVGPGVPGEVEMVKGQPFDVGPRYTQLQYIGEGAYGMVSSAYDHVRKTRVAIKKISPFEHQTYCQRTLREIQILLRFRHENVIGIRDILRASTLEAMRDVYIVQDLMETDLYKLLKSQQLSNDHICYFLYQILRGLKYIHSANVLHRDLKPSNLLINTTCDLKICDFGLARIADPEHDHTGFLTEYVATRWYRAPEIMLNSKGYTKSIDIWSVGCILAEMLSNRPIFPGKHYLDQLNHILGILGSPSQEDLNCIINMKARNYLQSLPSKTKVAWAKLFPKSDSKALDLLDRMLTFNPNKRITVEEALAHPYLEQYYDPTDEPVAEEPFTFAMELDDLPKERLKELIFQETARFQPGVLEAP

IC50 (AKT1): 0.043 to 0.189 µM | inhibition at 0.05 µM (DYRK2): > 50% | IC50 (MAP2K1 (MEK1)): 18 to 65 µM | IC50 (FLT1/VEGFR1): 18 to 65 µM | IC50 (PKCα): 0.8 to 6.6 µM | IC50 (wide-type PKA (wt-PKA)): 1.22 µM | inhibition at 0.05 µM (DYRK1A): > 50% | inhibition at 0.05 µM (STK39/STLK3): > 50% | IC50 (ERBB2/HER2): 18 to 65 µM | inhibition at 0.05 µM (PKCθ): > 50% | IC50 (GSK3β): 0.043 to 0.189 µM | inhibition at 0.05 µM (LATS1): > 50% | IC50 (ERK1): 0.8 to 6.6 µM | inhibition at 0.05 µM (CLK1): > 50% | inhibition at 0.05 µM (PKG1α): > 50% | IC50 (CK1α1): 0.8 to 6.6 µM | inhibition at 0.05 µM (PKG1β): > 50% | IC50 (CAMK1δ): 18 to 65 µM | IC50 (PKAα): 0.043 to 0.189 µM | PKAα % inhibition (PKAα; 50 nM, 10 μM ATP): 78% | number of kinases more potent targets compared to PKA [1]: 29
SMILES: Cn1cnc(Br)c1C1=CN(c2ncnc3nc[nH]c23)CCS1 [Compound 1a, Aplithianine A1]

IC50 (wide-type PKA (wt-PKA)): 45 µM | fold less potent than 1 against PKADJ (PKADJ; compared with compound 1): more than 60 fold | IC50 (PKADJ; modified sandwich ELISA, read-out: IC50 against PKADJ): 69 µM
SMILES: Cn1cncc1C1=CN(c2ncnc3[nH]c(=O)[nH]c23)CCS1 [Compound 2, Aplithianine B]

IC50 [2]: > 10 µM
SMILES: O=C(NCCNC(=O)c1ccccn1)C1=CN(c2ncnc3nc[nH]c23)CCS1 [Compound 183A049C, N-(2-(picolinamido)ethyl)-4-(7H-purin-6-yl)-3,4-dihydro-2H-1,4-thiazine-6-carboxamide]

IC50 [2]: 0.1 to 1 µM
SMILES: NCCNC(=O)C1=CN(c2ncnc3[nH]cnc23)CCS1 [Compound 183A049E, N-(2-aminoethyl)-4-(7H-purin-6-yl)-3,4-dihydro-2H-1,4-thiazine-6-carboxamide]

IC50 [2]: > 10 µM
SMILES: O=C(NCCNC(=O)c1ccccc1)C1=CN(c2ncnc3nc[nH]c23)CCS1 [Compound 183A049F, N-(2-benzamidoethyl)-4-(7H-purin-6-yl)-3,4-dihydro-2H-1,4-thiazine-6-carboxamide]

IC50 [2]: > 10 µM
SMILES: CC(=O)NCCNC(=O)C1=CN(c2ncnc3[nH]cnc23)CCS1 [Compound 183A050B, N-(2-acetamidoethyl)-4-(7H-purin-6-yl)-3,4-dihydro-2H-1,4-thiazine-6-carboxamide]

IC50 [2]: > 10 µM
SMILES: COCCNC(=O)C1=CN(c2ncnc3[nH]cnc23)CCS1 [Compound 183A050C, N-(2-methoxyethyl)-4-(7H-purin-6-yl)-3,4-dihydro-2H-1,4-thiazine-6-carboxamide]

IC50 [2]: > 10 µM
SMILES: O=C(NCCO)C1=CN(c2ncnc3[nH]cnc23)CCS1 [Compound 183A050D, N-(2-hydroxyethyl)-4-(7H-purin-6-yl)-3,4-dihydro-2H-1,4-thiazine-6-carboxamide]

IC50 [2]: 1.01 to 10 µM
SMILES: CNCCNC(=O)C1=CN(c2ncnc3nc[nH]c23)CCS1 [Compound 183A050E, N-(2-(methylamino)ethyl)-4-(7H-purin-6-yl)-3,4-dihydro-2H-1,4-thiazine-6-carboxamide]

IC50 [2]: > 10 µM
SMILES: NCCNC(=O)C1CN(c2ncnc3[nH]cnc23)CCS1 (stereo not drawn) [Compound 183A051C, N-(2-aminoethyl)-4-(7H-purin-6-yl)thiomorpholine-2-carboxamide]

SMILES: O=C1Nc2ccc(I)cc2/C1=C/c1cc(Br)c(O)c(Br)c1 [GW5074, reference compound]
IC50 (DYRK4): 3.66 µM
